Test: Osmotic pressure of saturated solutions by vapor pressure osmometer
Format: physicochemical
Conditions: for Osmotic Pressure in atm.: saturated solutions at 37° C., in water
Procedure: The osmotic solute may be initially present in excess and it can be in any physical form that is compatible with the proton pump inhibitor, the dosage form, and the osmopolymer. […] In the table, the osmotic pressure π, is in atmospheres, atm. The osmotic pressure is measured in a commercially available osmometer that measures the vapor pressure difference between pure water and the solution to be analyzed and, according to standard thermodynamic principles, the vapor pressure ratio is converted into osmotic pressure difference. […] The osmometer used for the present measurements is identified as Model 320B, Vapor Pressure Osmometer, manufactured by the Hewlett Packard Co., Avondale, Pa.

Compound | Osmotic Pressure in atm. | π value (osmotic pressure) (Hewlett Packard vapor pressure osmometer, ±10%)
O=C(CO)[C@@H](O)[C@H](O)[C@H](O)CO [Fructose] | 355 atm | 
OC[C@@H](O)[C@@H](O)[C@H](O)[C@H](O)CO [Mannitol] | 38 atm | 
[Cl-].[K+] [Potassium Chloride] | 245 atm | 
O=S(=O)([O-])[O-].[K+].[K+] [Potassium Sulfate] | 39 atm | 
[Cl-].[Na+] [Sodium Chloride] | 356 atm | 345 atm
O.O.O.O.O.O.O.O=P([O-])([O-])O.[Na+].[Na+] [Sodium Phosphate Dibasic 7 H2O] | 31 atm | 
O.O.O.O.O.O.O.O.O.O.O.O.O=P([O-])([O-])O.[Na+].[Na+] [Sodium Phosphate Dibasic 12 H2O] | 31 atm | 
O=P([O-])([O-])O.[Na+].[Na+] [Sodium Phosphate Dibasic Anhydrous] | 29 atm | 
O.O.O.O.O.O.O.O.O.O.O.O.O=P([O-])([O-])[O-].[Na+].[Na+].[Na+] [Sodium Phosphate Tribasic 12 H2O] | 36 atm | 
Sodium Phosphate Monobasic H2O | 28 atm | 

Source: patent US20090110727A1, “Extended release compositions of proton pump inhibitors” (Eisai R & D management Co., Ltd., priority 2004, published 2009)
